{"source": "patent US20070191933A1", "about": "“Reduction of restenosis” (priority 2005, published 2007)", "origin": "cited, not measured here", "system": "circulating T-cells", "conditions": "FIG. 1"}
{"substance": "alemtuzumab [Campath]", "values": [{"measurement": "time to full recovery of T-cells", "setting": "after a single dose", "value": "≥ 3", "unit": "months"}, {"measurement": "killing of circulating T-cells", "setting": "single dose", "value": "kill all circulating T-cells"}]}
